Patent US11572590B2, “Methods for evaluating tumor cell spheroids using 3D microfluidic cell culture device” (Dana-Farber Cancer Institute, Inc., priority 2017, dated 2023)
Read-outs that look alike come from different tables or passages of the source.

Key:
Assay in all cases: SelectScreen Kinase Profiling, single point inhibition and IC50 for off-target kinases
Assay type in all cases: biochemical
[1] = molecular target: off-target kinases (Homo sapiens, UniProt P11362, V561M); settings: FGFR1 V561M, mutant y, LanthaScreen Binding
[2] = molecular target: T1, off-target kinases (Homo sapiens, UniProt Q16832, T654M); settings: DDR2 T654M, LanthaScreen Binding
T1 sequence (Q16832 22-855 T654M): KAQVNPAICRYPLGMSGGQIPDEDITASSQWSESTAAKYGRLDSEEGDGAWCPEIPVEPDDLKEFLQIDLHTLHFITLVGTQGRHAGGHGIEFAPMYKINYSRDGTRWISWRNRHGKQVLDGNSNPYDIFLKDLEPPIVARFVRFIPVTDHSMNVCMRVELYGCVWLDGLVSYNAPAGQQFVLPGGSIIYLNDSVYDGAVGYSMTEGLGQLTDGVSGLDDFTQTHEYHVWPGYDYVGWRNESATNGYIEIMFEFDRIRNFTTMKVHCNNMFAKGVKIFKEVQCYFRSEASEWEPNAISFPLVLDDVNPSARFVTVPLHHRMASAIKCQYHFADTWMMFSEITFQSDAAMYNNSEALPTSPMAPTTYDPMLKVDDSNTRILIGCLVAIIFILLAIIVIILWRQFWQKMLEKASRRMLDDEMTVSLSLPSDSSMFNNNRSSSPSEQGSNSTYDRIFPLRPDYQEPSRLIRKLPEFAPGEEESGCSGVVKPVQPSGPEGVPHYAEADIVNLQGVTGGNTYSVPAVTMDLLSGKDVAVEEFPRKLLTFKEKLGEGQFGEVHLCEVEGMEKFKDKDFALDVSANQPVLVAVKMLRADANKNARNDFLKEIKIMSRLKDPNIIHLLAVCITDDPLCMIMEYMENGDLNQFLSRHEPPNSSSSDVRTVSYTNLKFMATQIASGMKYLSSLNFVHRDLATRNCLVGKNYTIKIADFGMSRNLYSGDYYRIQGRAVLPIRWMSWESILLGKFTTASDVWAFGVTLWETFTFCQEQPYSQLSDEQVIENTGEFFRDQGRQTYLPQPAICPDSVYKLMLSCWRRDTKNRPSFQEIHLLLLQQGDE

[3] = molecular target: T2, off-target kinases (Homo sapiens, UniProt Q9NWZ3); settings: IRAK4, ZLYTE, ATP Km app
T2 sequence (Q9NWZ3 1-460): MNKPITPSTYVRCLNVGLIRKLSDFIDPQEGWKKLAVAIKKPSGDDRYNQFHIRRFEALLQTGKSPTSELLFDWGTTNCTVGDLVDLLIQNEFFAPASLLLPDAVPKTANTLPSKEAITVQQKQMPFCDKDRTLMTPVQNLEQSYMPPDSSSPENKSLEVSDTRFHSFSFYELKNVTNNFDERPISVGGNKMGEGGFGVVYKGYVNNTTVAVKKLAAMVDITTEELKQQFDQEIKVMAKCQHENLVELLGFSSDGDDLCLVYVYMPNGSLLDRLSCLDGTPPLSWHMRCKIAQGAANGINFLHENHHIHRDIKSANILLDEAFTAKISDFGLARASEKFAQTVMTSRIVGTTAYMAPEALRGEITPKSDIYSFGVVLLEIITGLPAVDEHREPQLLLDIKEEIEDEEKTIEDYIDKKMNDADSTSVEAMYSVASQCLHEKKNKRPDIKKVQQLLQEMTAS

Sequence of off-target kinases (Homo sapiens, UniProt P11362, V561M) (P11362 22-822 V561M): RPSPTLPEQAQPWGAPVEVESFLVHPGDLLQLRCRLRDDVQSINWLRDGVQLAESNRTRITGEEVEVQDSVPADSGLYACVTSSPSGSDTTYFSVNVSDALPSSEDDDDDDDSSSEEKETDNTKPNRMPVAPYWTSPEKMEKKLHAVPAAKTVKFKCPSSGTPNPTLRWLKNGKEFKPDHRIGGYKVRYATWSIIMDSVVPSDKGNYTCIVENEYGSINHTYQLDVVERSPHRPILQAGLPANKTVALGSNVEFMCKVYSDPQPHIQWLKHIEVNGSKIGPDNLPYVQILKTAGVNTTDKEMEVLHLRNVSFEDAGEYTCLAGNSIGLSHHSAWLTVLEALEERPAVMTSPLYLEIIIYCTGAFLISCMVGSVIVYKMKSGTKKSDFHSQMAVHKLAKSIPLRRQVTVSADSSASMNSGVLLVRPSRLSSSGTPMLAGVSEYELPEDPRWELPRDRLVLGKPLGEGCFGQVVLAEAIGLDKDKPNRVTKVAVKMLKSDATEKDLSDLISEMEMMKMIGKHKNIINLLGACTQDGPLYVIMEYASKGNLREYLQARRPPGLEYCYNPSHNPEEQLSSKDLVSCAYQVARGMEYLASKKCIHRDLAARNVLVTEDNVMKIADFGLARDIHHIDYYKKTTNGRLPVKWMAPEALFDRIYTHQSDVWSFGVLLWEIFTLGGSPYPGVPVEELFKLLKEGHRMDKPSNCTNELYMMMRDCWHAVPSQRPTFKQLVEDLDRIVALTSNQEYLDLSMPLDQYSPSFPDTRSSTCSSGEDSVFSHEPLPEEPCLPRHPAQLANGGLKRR

Q: Which inhibition ([1]; read-out: % Inhibition 1) does the source give for N#Cc1cc(-c2ncnc(Nc3ccc(N4CCN(C5COC5)CC4)cc3)n2)ccc1OC1CCOCC1 [Compound 1, 5-(4-((4-(4-(oxetan-3-yl)piperazin-1-yl)phenyl)amino)-1,3,5-triazin-2-yl)-2-((tetrahydro-2H-pyran-4-yl)oxy)benzonitrile] here?
A: 20%

Q: And the inhibition ([1]; read-out: % Inhibition 2)?
A: 25%

Q: And the inhibition ([1]; read-out: % Inhibition Avg)?
A: 23%

Q: What about the inhibition ([2]; read-out: % Inhibition 1) of the same compound?
A: 56%

Q: And the inhibition ([2]; read-out: % Inhibition 2)?
A: 57%

Q: And the inhibition ([2]; read-out: % Inhibition Avg)?
A: 57%

Q: What about the inhibition ([3]; read-out: % Inhibition 1) of the same compound?
A: 5%

Q: And the inhibition ([3]; read-out: % Inhibition 2)?
A: 8%

Q: And the inhibition ([3]; read-out: % Inhibition Avg)?
A: 6%
